Test results as given in ChEMBL document CHEMBL3991601, “The target landscape of clinical kinase drugs” (Science, 2017).
Activity calls are given as the source filed them. Rule as the data show it, for most assays here: actives have a measured Kd and inactives only a lower limit.

molecular target: Dual specificity tyrosine-phosphorylation-regulated kinase 1A (Homo sapiens, UniProt Q13627); conditions: not given
Also: in the data inactive means no Kd found up to 30 µM.

SMILES | Kd
CN1CCC(COc2cnc(-c3cccc(Cn4nc(-c5cccc(C#N)c5)ccc4=O)c3)nc2)CC1 [TEPOTINIB] | > 30 µM (inactive)
COc1cc2nccc(Oc3ccc(NC(=O)Nc4cc(C)on4)c(Cl)c3)c2cc1OC [TIVOZANIB] | > 30 µM (inactive)
CC(=O)Nc1cccc(-n2c(=O)n(C3CC3)c(=O)c3c(Nc4ccc(I)cc4F)n(C)c(=O)c(C)c32)c1 [TRAMETINIB] | > 30 µM (inactive)

molecular target: Platelet-derived growth factor receptor beta (Homo sapiens, UniProt P09619); conditions: not given
Sequence (P09619 whole entry): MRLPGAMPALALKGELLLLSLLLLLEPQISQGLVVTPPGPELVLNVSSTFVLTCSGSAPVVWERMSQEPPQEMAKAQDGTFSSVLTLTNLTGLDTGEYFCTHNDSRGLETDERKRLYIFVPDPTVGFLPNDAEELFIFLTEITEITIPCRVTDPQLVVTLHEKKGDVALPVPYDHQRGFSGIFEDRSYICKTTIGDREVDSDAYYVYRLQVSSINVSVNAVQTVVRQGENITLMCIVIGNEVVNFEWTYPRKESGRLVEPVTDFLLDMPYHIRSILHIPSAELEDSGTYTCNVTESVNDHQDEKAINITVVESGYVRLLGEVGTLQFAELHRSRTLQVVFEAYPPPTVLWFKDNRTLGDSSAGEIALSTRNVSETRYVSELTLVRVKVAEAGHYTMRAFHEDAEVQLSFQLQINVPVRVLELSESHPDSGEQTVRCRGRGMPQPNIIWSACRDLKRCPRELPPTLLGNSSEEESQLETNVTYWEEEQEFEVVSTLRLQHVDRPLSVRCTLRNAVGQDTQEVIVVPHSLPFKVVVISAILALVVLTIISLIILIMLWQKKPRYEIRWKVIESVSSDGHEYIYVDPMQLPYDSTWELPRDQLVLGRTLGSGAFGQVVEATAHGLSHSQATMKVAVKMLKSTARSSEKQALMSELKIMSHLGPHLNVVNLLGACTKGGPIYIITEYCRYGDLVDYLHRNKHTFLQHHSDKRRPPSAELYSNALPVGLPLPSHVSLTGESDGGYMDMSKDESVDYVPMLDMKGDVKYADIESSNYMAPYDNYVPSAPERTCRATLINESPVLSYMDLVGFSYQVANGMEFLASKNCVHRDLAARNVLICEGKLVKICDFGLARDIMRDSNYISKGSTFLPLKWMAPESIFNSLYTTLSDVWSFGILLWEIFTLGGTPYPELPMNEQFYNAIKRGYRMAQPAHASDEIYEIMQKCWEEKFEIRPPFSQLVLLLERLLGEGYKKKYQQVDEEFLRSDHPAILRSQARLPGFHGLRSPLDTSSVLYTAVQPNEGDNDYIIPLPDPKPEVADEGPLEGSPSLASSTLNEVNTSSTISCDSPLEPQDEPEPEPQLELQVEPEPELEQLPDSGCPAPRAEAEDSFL

SMILES | Kd
CN1CCC(COc2cnc(-c3cccc(Cn4nc(-c5cccc(C#N)c5)ccc4=O)c3)nc2)CC1 [TEPOTINIB] | > 30 µM (inactive)
COc1cc2nccc(Oc3ccc(NC(=O)Nc4cc(C)on4)c(Cl)c3)c2cc1OC [TIVOZANIB] | 2.41 µM (active)
CC(=O)Nc1cccc(-n2c(=O)n(C3CC3)c(=O)c3c(Nc4ccc(I)cc4F)n(C)c(=O)c(C)c32)c1 [TRAMETINIB] | > 30 µM (inactive)

molecular target: Ribosomal protein S6 kinase beta-1 (Homo sapiens, UniProt P23443); conditions: not given
Sequence (P23443 whole entry): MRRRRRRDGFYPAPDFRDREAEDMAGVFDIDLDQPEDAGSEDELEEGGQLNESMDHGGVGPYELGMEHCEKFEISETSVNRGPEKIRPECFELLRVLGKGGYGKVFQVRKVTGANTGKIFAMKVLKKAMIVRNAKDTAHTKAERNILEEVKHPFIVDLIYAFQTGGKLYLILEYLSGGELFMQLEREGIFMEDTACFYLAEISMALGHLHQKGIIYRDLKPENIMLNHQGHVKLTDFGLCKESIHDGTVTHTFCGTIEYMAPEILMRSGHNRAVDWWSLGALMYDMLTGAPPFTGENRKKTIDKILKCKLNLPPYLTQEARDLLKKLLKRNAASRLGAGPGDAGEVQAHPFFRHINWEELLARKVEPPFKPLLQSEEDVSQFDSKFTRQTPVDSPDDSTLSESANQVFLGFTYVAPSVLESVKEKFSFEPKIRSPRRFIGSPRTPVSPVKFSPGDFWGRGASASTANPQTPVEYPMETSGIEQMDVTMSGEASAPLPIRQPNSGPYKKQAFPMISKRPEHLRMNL

SMILES | Kd
CN1CCC(COc2cnc(-c3cccc(Cn4nc(-c5cccc(C#N)c5)ccc4=O)c3)nc2)CC1 [TEPOTINIB] | > 30 µM (inactive)
COc1cc2nccc(Oc3ccc(NC(=O)Nc4cc(C)on4)c(Cl)c3)c2cc1OC [TIVOZANIB] | > 30 µM (inactive)
CC(=O)Nc1cccc(-n2c(=O)n(C3CC3)c(=O)c3c(Nc4ccc(I)cc4F)n(C)c(=O)c(C)c32)c1 [TRAMETINIB] | > 30 µM (inactive)

molecular target: Cyclin-dependent kinase 6 (Homo sapiens, UniProt Q00534); conditions: not given
Sequence (Q00534 whole entry): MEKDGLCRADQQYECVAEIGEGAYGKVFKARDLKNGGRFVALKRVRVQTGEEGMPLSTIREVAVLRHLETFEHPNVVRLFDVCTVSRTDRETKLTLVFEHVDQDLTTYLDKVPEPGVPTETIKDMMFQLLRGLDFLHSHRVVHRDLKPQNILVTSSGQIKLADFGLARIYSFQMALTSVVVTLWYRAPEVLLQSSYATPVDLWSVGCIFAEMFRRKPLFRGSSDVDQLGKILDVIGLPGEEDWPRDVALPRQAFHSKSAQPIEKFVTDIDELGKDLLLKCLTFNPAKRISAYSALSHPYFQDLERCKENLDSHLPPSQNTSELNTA

SMILES | Kd
CN1CCC(COc2cnc(-c3cccc(Cn4nc(-c5cccc(C#N)c5)ccc4=O)c3)nc2)CC1 [TEPOTINIB] | > 30 µM (inactive)
COc1cc2nccc(Oc3ccc(NC(=O)Nc4cc(C)on4)c(Cl)c3)c2cc1OC [TIVOZANIB] | > 30 µM (inactive)
CC(=O)Nc1cccc(-n2c(=O)n(C3CC3)c(=O)c3c(Nc4ccc(I)cc4F)n(C)c(=O)c(C)c32)c1 [TRAMETINIB] | > 30 µM (inactive)

molecular target: Glycogen synthase kinase-3 beta (Homo sapiens, UniProt P49841); conditions: not given
Sequence (P49841 whole entry): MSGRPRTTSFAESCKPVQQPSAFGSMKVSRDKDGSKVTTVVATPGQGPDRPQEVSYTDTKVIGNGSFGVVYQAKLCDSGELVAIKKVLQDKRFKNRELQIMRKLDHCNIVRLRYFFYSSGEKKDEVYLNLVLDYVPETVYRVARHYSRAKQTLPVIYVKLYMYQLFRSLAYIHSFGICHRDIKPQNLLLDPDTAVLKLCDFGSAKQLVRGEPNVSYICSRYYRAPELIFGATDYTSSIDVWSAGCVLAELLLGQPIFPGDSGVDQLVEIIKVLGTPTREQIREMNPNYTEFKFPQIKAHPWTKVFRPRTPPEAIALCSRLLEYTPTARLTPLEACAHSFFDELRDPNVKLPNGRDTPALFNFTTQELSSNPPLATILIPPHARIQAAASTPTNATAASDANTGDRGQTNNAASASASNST

SMILES | Kd
CN1CCC(COc2cnc(-c3cccc(Cn4nc(-c5cccc(C#N)c5)ccc4=O)c3)nc2)CC1 [TEPOTINIB] | > 30 µM (inactive)
COc1cc2nccc(Oc3ccc(NC(=O)Nc4cc(C)on4)c(Cl)c3)c2cc1OC [TIVOZANIB] | > 30 µM (inactive)
CC(=O)Nc1cccc(-n2c(=O)n(C3CC3)c(=O)c3c(Nc4ccc(I)cc4F)n(C)c(=O)c(C)c32)c1 [TRAMETINIB] | > 30 µM (inactive)

molecular target: T1, RNA cytidine acetyltransferase (Homo sapiens, UniProt Q9H0A0); conditions: not given
T1 sequence (Q9H0A0 whole entry): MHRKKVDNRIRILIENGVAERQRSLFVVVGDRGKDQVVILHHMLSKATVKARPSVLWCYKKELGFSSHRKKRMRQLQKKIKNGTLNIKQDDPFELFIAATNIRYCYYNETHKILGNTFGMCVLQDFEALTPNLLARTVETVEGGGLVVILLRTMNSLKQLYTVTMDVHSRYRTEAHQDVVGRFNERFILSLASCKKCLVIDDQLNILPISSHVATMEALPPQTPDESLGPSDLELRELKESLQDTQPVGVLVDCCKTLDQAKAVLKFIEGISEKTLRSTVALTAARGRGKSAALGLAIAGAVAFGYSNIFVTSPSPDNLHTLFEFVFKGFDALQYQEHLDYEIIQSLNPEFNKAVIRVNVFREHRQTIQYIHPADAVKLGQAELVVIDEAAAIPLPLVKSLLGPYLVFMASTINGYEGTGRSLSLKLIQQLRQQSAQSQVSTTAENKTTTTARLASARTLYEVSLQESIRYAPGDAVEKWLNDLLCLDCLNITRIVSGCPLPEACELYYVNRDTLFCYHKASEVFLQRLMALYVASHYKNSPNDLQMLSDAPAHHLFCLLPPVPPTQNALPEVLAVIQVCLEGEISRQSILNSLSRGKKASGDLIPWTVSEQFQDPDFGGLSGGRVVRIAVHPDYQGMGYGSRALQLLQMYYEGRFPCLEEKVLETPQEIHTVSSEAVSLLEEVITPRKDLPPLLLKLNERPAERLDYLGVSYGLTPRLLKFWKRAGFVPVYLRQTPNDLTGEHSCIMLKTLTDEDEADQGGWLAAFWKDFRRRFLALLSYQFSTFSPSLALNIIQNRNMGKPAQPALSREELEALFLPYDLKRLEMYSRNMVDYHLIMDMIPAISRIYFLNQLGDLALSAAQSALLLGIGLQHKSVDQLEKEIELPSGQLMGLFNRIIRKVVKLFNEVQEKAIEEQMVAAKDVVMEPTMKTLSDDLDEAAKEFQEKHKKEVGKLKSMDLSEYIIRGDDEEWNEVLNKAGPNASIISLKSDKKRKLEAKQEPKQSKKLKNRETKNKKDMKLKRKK

SMILES | Kd
CN1CCC(COc2cnc(-c3cccc(Cn4nc(-c5cccc(C#N)c5)ccc4=O)c3)nc2)CC1 [TEPOTINIB] | > 30 µM (inactive)
COc1cc2nccc(Oc3ccc(NC(=O)Nc4cc(C)on4)c(Cl)c3)c2cc1OC [TIVOZANIB] | > 30 µM (inactive)
CC(=O)Nc1cccc(-n2c(=O)n(C3CC3)c(=O)c3c(Nc4ccc(I)cc4F)n(C)c(=O)c(C)c32)c1 [TRAMETINIB] | > 30 µM (inactive)

molecular target: T2, Uncharacterized protein FLJ45252 (Homo sapiens, UniProt Q6ZSR9); conditions: read-out: Kd apparent; k-562, colo 205, sk-n-be(2) and mv-4-11
T2 sequence (Q6ZSR9 whole entry): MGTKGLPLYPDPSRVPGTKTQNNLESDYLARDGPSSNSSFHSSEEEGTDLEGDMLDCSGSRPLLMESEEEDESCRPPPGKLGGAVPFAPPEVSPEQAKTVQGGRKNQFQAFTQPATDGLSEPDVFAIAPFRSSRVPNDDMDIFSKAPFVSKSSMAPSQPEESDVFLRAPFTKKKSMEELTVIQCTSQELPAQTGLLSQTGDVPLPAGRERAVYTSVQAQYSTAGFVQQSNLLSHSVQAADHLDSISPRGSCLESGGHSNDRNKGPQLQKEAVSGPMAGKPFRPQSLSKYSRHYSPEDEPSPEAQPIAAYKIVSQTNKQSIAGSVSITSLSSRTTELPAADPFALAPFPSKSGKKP

SMILES | Kd
CN1CCC(COc2cnc(-c3cccc(Cn4nc(-c5cccc(C#N)c5)ccc4=O)c3)nc2)CC1 [TEPOTINIB] | > 30 µM (inactive)
COc1cc2nccc(Oc3ccc(NC(=O)Nc4cc(C)on4)c(Cl)c3)c2cc1OC [TIVOZANIB] | > 30 µM (inactive)
CC(=O)Nc1cccc(-n2c(=O)n(C3CC3)c(=O)c3c(Nc4ccc(I)cc4F)n(C)c(=O)c(C)c32)c1 [TRAMETINIB] | > 30 µM (inactive)

molecular target: Rho-associated protein kinase 2 (Homo sapiens, UniProt O75116); conditions: not given
Sequence (O75116 whole entry): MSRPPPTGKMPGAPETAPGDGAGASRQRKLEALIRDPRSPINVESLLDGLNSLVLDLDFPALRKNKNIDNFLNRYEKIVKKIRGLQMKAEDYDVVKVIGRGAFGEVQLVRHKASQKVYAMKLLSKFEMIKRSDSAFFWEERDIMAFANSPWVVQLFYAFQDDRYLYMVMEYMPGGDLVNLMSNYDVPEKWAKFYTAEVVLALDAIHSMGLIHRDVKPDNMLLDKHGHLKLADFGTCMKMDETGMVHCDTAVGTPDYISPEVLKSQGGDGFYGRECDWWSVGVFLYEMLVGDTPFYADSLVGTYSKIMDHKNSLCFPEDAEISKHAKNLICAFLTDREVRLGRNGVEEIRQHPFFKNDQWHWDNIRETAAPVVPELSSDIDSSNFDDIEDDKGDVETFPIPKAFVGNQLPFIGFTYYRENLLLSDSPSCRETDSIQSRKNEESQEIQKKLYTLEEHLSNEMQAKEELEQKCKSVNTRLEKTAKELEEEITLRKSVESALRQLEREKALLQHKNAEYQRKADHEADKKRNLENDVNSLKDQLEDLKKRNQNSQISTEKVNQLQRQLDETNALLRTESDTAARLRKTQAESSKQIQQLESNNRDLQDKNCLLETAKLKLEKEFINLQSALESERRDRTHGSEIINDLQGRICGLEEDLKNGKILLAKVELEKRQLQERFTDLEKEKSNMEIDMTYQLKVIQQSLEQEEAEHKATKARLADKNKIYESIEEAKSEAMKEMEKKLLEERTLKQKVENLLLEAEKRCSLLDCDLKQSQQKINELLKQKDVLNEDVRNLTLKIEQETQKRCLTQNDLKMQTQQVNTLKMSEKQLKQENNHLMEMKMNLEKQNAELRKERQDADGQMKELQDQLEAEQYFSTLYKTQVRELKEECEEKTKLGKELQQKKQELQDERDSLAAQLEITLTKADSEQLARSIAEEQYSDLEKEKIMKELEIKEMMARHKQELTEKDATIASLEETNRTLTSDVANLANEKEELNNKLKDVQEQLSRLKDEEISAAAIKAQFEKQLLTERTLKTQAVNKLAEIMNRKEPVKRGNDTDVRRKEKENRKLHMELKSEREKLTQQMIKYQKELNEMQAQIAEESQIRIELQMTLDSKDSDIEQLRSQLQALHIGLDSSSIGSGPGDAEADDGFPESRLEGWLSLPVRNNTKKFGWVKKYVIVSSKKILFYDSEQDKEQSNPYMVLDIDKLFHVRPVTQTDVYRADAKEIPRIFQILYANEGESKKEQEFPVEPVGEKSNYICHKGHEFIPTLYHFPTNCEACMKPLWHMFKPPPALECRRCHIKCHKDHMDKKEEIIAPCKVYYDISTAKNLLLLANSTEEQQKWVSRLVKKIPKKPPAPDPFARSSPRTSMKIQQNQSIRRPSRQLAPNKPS

SMILES | Kd
CN1CCC(COc2cnc(-c3cccc(Cn4nc(-c5cccc(C#N)c5)ccc4=O)c3)nc2)CC1 [TEPOTINIB] | > 30 µM (inactive)
COc1cc2nccc(Oc3ccc(NC(=O)Nc4cc(C)on4)c(Cl)c3)c2cc1OC [TIVOZANIB] | > 30 µM (inactive)
CC(=O)Nc1cccc(-n2c(=O)n(C3CC3)c(=O)c3c(Nc4ccc(I)cc4F)n(C)c(=O)c(C)c32)c1 [TRAMETINIB] | > 30 µM (inactive)

molecular target: T3, Signal recognition particle receptor subunit alpha (Homo sapiens, UniProt P08240); conditions: not given
T3 sequence (P08240 whole entry): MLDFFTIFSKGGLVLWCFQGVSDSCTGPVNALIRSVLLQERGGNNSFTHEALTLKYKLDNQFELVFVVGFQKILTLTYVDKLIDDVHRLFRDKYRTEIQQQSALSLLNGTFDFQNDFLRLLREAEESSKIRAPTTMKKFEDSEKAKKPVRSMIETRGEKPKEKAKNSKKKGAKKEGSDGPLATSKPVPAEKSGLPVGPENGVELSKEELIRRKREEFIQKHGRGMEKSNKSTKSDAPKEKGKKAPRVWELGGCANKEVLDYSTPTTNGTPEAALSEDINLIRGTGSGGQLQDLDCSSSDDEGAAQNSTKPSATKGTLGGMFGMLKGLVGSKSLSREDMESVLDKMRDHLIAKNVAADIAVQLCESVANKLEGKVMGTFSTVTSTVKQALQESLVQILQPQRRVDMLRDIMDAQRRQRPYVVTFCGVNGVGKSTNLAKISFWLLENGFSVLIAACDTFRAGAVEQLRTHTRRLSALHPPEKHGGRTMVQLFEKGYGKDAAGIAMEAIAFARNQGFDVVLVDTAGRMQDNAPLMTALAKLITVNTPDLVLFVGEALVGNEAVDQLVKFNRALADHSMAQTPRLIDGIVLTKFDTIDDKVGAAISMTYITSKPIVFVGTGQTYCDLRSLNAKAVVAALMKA

SMILES | Kd
CN1CCC(COc2cnc(-c3cccc(Cn4nc(-c5cccc(C#N)c5)ccc4=O)c3)nc2)CC1 [TEPOTINIB] | > 30 µM (inactive)
COc1cc2nccc(Oc3ccc(NC(=O)Nc4cc(C)on4)c(Cl)c3)c2cc1OC [TIVOZANIB] | > 30 µM (inactive)
CC(=O)Nc1cccc(-n2c(=O)n(C3CC3)c(=O)c3c(Nc4ccc(I)cc4F)n(C)c(=O)c(C)c32)c1 [TRAMETINIB] | > 30 µM (inactive)

molecular target: T4, TGF-beta receptor type-1 (Homo sapiens, UniProt P36897); conditions: not given
T4 sequence (P36897 whole entry): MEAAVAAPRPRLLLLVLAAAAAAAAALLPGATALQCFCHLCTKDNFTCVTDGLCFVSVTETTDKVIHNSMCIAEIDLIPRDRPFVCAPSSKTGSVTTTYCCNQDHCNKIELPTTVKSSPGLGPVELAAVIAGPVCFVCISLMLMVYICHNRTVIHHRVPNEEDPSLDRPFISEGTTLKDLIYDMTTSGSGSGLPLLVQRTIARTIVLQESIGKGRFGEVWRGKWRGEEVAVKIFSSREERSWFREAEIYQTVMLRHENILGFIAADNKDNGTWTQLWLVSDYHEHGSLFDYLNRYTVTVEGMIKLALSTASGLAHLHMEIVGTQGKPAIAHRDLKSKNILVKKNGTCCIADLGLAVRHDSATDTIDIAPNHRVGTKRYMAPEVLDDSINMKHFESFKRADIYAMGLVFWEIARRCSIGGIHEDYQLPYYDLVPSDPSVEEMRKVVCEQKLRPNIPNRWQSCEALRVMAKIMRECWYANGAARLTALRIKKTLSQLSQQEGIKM

SMILES | Kd
CN1CCC(COc2cnc(-c3cccc(Cn4nc(-c5cccc(C#N)c5)ccc4=O)c3)nc2)CC1 [TEPOTINIB] | > 30 µM (inactive)
COc1cc2nccc(Oc3ccc(NC(=O)Nc4cc(C)on4)c(Cl)c3)c2cc1OC [TIVOZANIB] | > 30 µM (inactive)
CC(=O)Nc1cccc(-n2c(=O)n(C3CC3)c(=O)c3c(Nc4ccc(I)cc4F)n(C)c(=O)c(C)c32)c1 [TRAMETINIB] | > 30 µM (inactive)

molecular target: Mitogen-activated protein kinase 3 (Homo sapiens, UniProt P27361); conditions: not given
Sequence (P27361 whole entry): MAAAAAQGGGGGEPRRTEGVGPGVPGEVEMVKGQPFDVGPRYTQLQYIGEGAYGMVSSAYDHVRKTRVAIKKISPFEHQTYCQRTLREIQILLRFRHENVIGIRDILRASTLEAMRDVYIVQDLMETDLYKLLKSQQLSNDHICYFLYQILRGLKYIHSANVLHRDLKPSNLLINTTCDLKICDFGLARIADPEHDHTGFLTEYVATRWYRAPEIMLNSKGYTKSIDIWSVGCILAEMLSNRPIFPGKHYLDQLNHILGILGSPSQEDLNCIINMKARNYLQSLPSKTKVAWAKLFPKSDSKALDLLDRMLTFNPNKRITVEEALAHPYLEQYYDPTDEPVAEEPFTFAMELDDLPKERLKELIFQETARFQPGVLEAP

SMILES | Kd
CN1CCC(COc2cnc(-c3cccc(Cn4nc(-c5cccc(C#N)c5)ccc4=O)c3)nc2)CC1 [TEPOTINIB] | > 30 µM (inactive)
COc1cc2nccc(Oc3ccc(NC(=O)Nc4cc(C)on4)c(Cl)c3)c2cc1OC [TIVOZANIB] | > 30 µM (inactive)
CC(=O)Nc1cccc(-n2c(=O)n(C3CC3)c(=O)c3c(Nc4ccc(I)cc4F)n(C)c(=O)c(C)c32)c1 [TRAMETINIB] | > 30 µM (inactive)
